The subject of data set [1] is tPBP2^H041. Put plainly: time-dependent gel-based assay, second-order acylation by Bocillin-FL. In kind it is biochemical, Neisseria gonorrhoeae. As to conditions: time-course, pH 8.0, room temperature.
For data set [2], the system named is tPBP2^H041-K361E. Put plainly: time-dependent gel-based assay, acylation of K361E mutant by Bocillin-FL. Format: biochemical, Neisseria gonorrhoeae.
The subject of data set [3] is tPBP2^H041-K361E. The experiment in a line: gel-based competition assay with Bocillin-FL against K361E mutant. As to conditions: for Fractional Activity: fractional acylation rate of K361E compared to native tPBP2^H041; for K361E k2/Ks: tPBP2^H041-K361E mutant, competition with Bocillin-FL; for reduction in acylation rate against K361E mutant: K361E versus native tPBP2^H041. In kind it is biochemical, Neisseria gonorrhoeae.

A further data set deals with N. gonorrhoeae H041. Put plainly: minimum inhibitory concentration by agar dilution. Format: cell-based, Neisseria gonorrhoeae.
Data set [4] relates to N. gonorrhoeae strain H041.
Data set [5] concerns tPBP2^H041. Put plainly: gel-based competition assay with Bocillin-FL, second-order acylation rate. Format: biochemical, Neisseria gonorrhoeae.
Data set [6] concerns wild-type PBP2 (tPBP2^WT). The conditions noted are these: cited from earlier work.
In data set [7] the test system is tPBP2^H041. As to conditions: cited from earlier work.
The subject of data set [8] is FA19 with mosaic penA gene from H041 (penA41). As to conditions: allelic exchange; cited from earlier work.
A further data set has as its system H041. As to conditions: cited from earlier work.
For data set [9] the following is noted: cited from earlier work.
The conditions of data set [10]: whole molecule; cited from earlier work.
The subject of a further data set is (non-mosaic) PBP2. As to conditions: membrane preparations; cited from earlier work.
Setting [11] is: Neisseria gonorrhoeae, H041, 24 h.

These results are taken from article PMC9847585 (ACS infectious diseases, 2021).

In brackets after ≈: the same amount, converted by molar mass. Where two headings read alike, the source gives them in different places.

Consider `Cc1cc(C)n2c1C=C1C=CC(CCC(=O)Nc3ccc(OCC(=O)N[C@@H]4C(=O)N5[C@@H]4SC(C)(C)[C@@H]5C(=O)[O-])cc3)=[N+]1[B-]2(F)F.[Na+]` [Bocillin-FL], for which the “second-order acylation rate k2/Ks of Bocillin-FL” value in the data set with tPBP2^H041 [1] came out at 275 ± 9 M⁻¹ s⁻¹. The “decrease in Bocillin-FL acylation rate against K361E” value in the data set with tPBP2^H041-K361E [2] (compared to the native enzyme) is 5 fold. The “second-order acylation rate of Bocillin-FL against K361E” value with tPBP2^H041-K361E [2] (tPBP2^H041-K361E mutant, time-course) was found to be 57 ± 1 M⁻¹ s⁻¹.

On to `CO/N=C(\C(=O)N[C@@H]1C(=O)N2C(C(=O)[O-])=C(C[N+]3(C)CCCC3)CS[C@H]12)c1csc(N)n1` [cefepime], for which, in the data set on tPBP2^H041-K361E [3], the “Fractional Activity” value was found to be 0.64 and the “K361E k2/Ks” value was 410 ± 130 M⁻¹ s⁻¹.

For orientation: MIC means the smallest concentration in the dilution series that meets the test's criterion for growth inhibition. In the data set on N. gonorrhoeae H041 (setting [11]), `N[C@@H](C(=O)N[C@@H]1C(=O)N2C(C(=O)O)=C(Cl)CS[C@H]12)c1ccccc1` [cefaclor] registered an MIC of at least 32 µg/mL.

For `CNC(C)C1CCC(N)C(OC2C(N)CC(N)C(OC3OCC(C)(O)C(NC)C3O)C2O)O1` (stereo not shown) [gentamicin], in data set [4] (48 mg/kg once a day for 5 days (5QD), by day 4 after initiation of treatment, n = 8), the culture negativity came to 100%. This compound returned a mean time-to-clearance in [4] (48 mg/kg once a day for 5 days (5QD), n = 8) of 3.1 days.

In the data set on N. gonorrhoeae H041 (setting [11]), `CC(=O)OCC1=C(C(=O)O)N2C(=O)[C@@H](NC(=O)Cc3cccs3)[C@H]2SC1` [cephalothin] showed an MIC of at least 32 µg/mL.

For the compound `Cc1cc(O)c(C(=O)N[C@@H](C(=O)N[C@@H]2C(=O)N3C(C(=O)O)=C(CSc4nnnn4C)CS[C@H]23)c2ccc(O)cc2)cn1` [cefpiramide], the “k2/Ks lower than cefoperazone” value with tPBP2^H041 [5] was found to be 100 fold.

For the compound `CO/N=C(\C(=O)N[C@@H]1C(=O)N2C(C(=O)O)=C(CSc3nc(=O)c(=O)[nH]n3C)CS[C@H]12)c1csc(N)n1` [ceftriaxone], in the data set on tPBP2^H041-K361E [3], the “reduction in acylation rate against K361E mutant” value was 6 fold, the “Fractional Activity” value is listed as 0.17 and the “K361E k2/Ks” value amounted to 290 ± 70 M⁻¹ s⁻¹. Moreover, the “k3 (deacylation rate) of acylated complex” value in [6] was 2.8e-06 s⁻¹. The same compound had an MIC in the data set on N. gonorrhoeae H041 (setting [11]) of 2 µg/mL (≈ 3.61 µM). For the same compound, the “k3 (deacylation rate) of acylated complex” value with tPBP2^H041 [7] was 8.1e-05 s⁻¹. The “increase in MIC on replacing wild-type penA in FA19 with penA41” value in data set [8] is recorded as 570 fold. For the same compound, the “increase in MIC compared to strain FA19” value with H041 (H041 versus FA19) was 3,000 fold. The MIC in the data set on H041 (strain H041) is 2 µg/mL (≈ 3.61 µM). The route of excretion entry in data set [9] was “primarily renal”.

As for `CO[C@@]1(NC(=O)Cc2cccs2)C(=O)N2C(C(=O)O)=C(COC(N)=O)CS[C@@H]21` [cefoxitin], the MIC came to 3 µg/mL (≈ 7.02 µM) in the data set with N. gonorrhoeae H041 (24 hr) and 4 µg/mL (≈ 9.36 µM) against N. gonorrhoeae H041 (setting [11]).

Turning to `CC(C)(O/N=C(\C(=O)N[C@@H]1C(=O)N2C(C(=O)[O-])=C(C[n+]3ccccc3)CS[C@H]12)c1csc(N)n1)C(=O)O` [ceftazidime], in the data set on tPBP2^H041-K361E [3], the “Fractional Activity” value worked out at 0.70 and the “K361E k2/Ks” value was 560 ± 180 M⁻¹ s⁻¹. In the data set on N. gonorrhoeae H041 (setting [11]), this compound displayed an MIC of at least 32 µg/mL.

For `NC(=O)c1cc[n+](CC2=C(C(=O)O)N3C(=O)[C@@H](NC(=O)[C@@H](c4ccccc4)S(=O)(=O)[O-])[C@H]3SC2)cc1` [cefsulodin], the MIC with N. gonorrhoeae H041 (setting [11]) is at least 32 µg/mL.

For `CCO/N=C(\C(=O)N[C@@H]1C(=O)N2C(C(=O)[O-])=C(Sc3nc(-c4cc[n+](C)cc4)cs3)CS[C@H]12)c1nsc(N)n1` [ceftaroline], the logD7.4 in [10] is 1.03.

Regarding `CC1=C(C(=O)O)N2C(=O)[C@@H](NC(=O)[C@H](N)c3ccccc3)[C@H]2SC1` [cephalexin], the MIC against N. gonorrhoeae H041 (setting [11]) was at least 32 µg/mL.

For `CCN1CCN(C(=O)N[C@@H](C(=O)N[C@@H]2C(=O)N3C(C(=O)O)=C(CSc4nnnn4C)CS[C@H]23)c2ccc(O)cc2)C(=O)C1=O` [cefoperazone], in the data set with tPBP2^H041-K361E [3], the “reduction in acylation rate against K361E mutant” value is reported as 32 fold, the “Fractional Activity” value was found to be 0.03 and the “K361E k2/Ks” value was determined as 370 ± 60 M⁻¹ s⁻¹. Besides, the “concentration at which bound to PBP2” value in the data set on (non-mosaic) PBP2 is listed as “less than 10^−3 μg/mL”. For the same compound, it took 1 µg/mL (≈ 1.55 µM) to inhibit growth in the data set with N. gonorrhoeae H041 (setting [11]) (MIC). Further, the “acylation rate relative to ceftriaxone (faster)” value with tPBP2^H041 [5] stood at 7 fold. In addition, the culture negativity in data set [4] (120 mg/kg TID one day, intraperitoneal, by day 3 post-treatment, n = 9) was 100%. Also, the route of excretion entry in data set [9] was “primarily biliary”.

As for `C=CC1=C(C(=O)O)N2C(=O)[C@@H](NC(=O)/C(=N\O)c3csc(N)n3)[C@H]2SC1` [cefdinir], in the data set on N. gonorrhoeae H041 (setting [11]), it took 2 µg/mL (≈ 5.06 µM) to inhibit growth (MIC).
